One may read the Ki as the equilibrium dissociation constant of an inhibitor or competing ligand from its target. Higher therefore signals lower affinity. For orientation: Kd means a measure of binding affinity in units of concentration. Higher therefore signals a looser complex.

No end group written: not given here.

In assay [1] the target is T1, Dvl PDZ domain (Dvl1 PDZ) (Mus musculus, UniProt P51141).
T1 sequence (P51141 248-337): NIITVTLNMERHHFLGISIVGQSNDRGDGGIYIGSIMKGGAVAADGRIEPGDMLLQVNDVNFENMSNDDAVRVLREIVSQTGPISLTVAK
The experiment in a line: binding test shown only in supplement.

For assay [2], the target named is T1, Dvl PDZ domain (Dvl1 PDZ). Briefly: fluorescence polarization competition with Rox-DprC peptide. It counts as binding. (In general: In fluorescence polarisation assays a small probe gives low polarisation when free and higher when bound to something large.)
The target in assay [3] is T2, Dapper C-terminal peptide (Rox-DprC) (Xenopus laevis).
T2 chain: Rox-SGSLKLMTTV
Briefly: fluorescence polarization.

Regarding `CSc1ccc(/C=C2/C(C)=C(CC(=O)O)c3cc(F)ccc32)cc1` [sulindac sulfide], in assay [1], the “binding test shown only in supplement” value is given as “binds to the PDZ domain with much weaker affinity (Figure S6)”.
Take `CC1=C(CC(=O)O)c2cc(F)ccc2/C1=C\c1ccc([S@@+](C)[O-])cc1` [sulindac]: the Ki in assay [2] came out at 10.7 ± 1.2 µM.
The same measure, in the same setting: next, `CC1=C(CC(=O)O)c2cc(F)ccc2/C1=C\c1ccc(S(C)(=O)=O)cc1` [sulindac sulfone]: 8 ± 0.2 µM.

B1: Dishevelled PDZ domain (Dvl1) PDZ (protein)
chain: NIITVTLNMERHHFLGISIVGQSNDRGDGGIYIGSIMKGGAVAADGRIEPGDMLLQVNDVNFENMSNDDAVRVLREIVS
B1: in assay [3], the dissociation constant Kd was ~8 µM.
